Test results from patent publication US11446287B2, “Compounds and methods for EP300 or CBP modulation and indications therefor” (Opna Immuno-Oncology SA, priority 2019, dated 2022).

These molecules were tested against T1, Recombinant human BRD4 containing dual bromodomains (BRD4-BD12 (1-477)) (Homo sapiens, UniProt O60885) (assay: BRD4 Alphascreen binding assay).
T1 construct: Recombinant human BRD4 containing dual bromodomains (BRD4-BD12 (1-477)); made in house; host or cells: E. coli BL21-CodonPlus (DE3), modified pET vector
Procedure, shortened: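 His-tagged human BRD4 tandem bromodomains (1-477, E. coli) incubated 1 h at room temperature with biotinylated tetra-acetylated H4 (1-21) peptide and compound in HEPES pH 7.5 buffer with 2 mM DTT. AlphaScreen signal read 30 min after adding beads (7.5 μg/ml); IC50 from four-parameter fit after normalization to controls.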

Compound | IC50
Cc1noc(C)c1-c1cnc2c(c1)c(-c1ccc(C(=O)O)cc1)cn2C(C)c1ncccn1 (stereo not shown) [P-0013, 4-(5-(3,5-dimethylisoxazol-4-yl)-1-(1-(pyrimidin-2-yl)ethyl)-1H-pyrrolo[2,3-b]pyridin-3-yl)benzoic acid] | 8 to 1000 µM
Cc1noc(C)c1-c1cnc2c(c1)c(-c1ccc(C(=O)O)cc1)cn2C(C)c1ccc(F)cn1 (stereo not shown) [P-0014, 4-(5-(3,5-dimethylisoxazol-4-yl)-1-(1-(5-fluoropyridin-2-yl)ethyl)-1H-pyrrolo[2,3-b]pyridin-3-yl)benzoic acid] | 8 to 1000 µM
Cc1noc(C)c1-c1cnc2c(c1)c(-c1cccc(C(=O)O)c1)cn2C(c1ccccn1)C1CCCC1 (stereo not shown) [P-0015, 3-(1-(cyclopentyl(pyridin-2-yl)methyl)-5-(3,5-dimethylisoxazol-4-yl)-1H-pyrrolo[2,3-b]pyridin-3-yl)benzoic acid] | 1 to 8 µM
Cc1noc(C)c1-c1cnc2c(c1)c(-c1ccc(F)c(C(=O)O)c1)cn2C(c1ccccn1)C1CCCC1 (stereo not shown) [P-0016, 5-(1-(cyclopentyl(pyridin-2-yl)methyl)-5-(3,5-dimethylisoxazol-4-yl)-1H-pyrrolo[2,3-b]pyridin-3-yl)-2-fluorobenzoic acid] | 1 to 8 µM
Cc1noc(C)c1-c1cnc2c(c1)c(-c1ccnc(C(=O)O)c1)cn2C(c1ccccn1)C1CCCC1 (stereo not shown) [P-0017, 4-(1-(cyclopentyl(pyridin-2-yl)methyl)-5-(3,5-dimethylisoxazol-4-yl)-1H-pyrrolo[2,3-b]pyridin-3-yl)picolinic acid] | 1 to 8 µM
Cc1noc(C)c1-c1cnc2c(c1)c(-c1cccc(CC(=O)O)c1)cn2C(c1ccccn1)C1CCCC1 (stereo not shown) [P-0018, 2-(3-(1-(cyclopentyl(pyridin-2-yl)methyl)-5-(3,5-dimethylisoxazol-4-yl)-1H-pyrrolo[2,3-b]pyridin-3-yl)phenyl)acetic acid] | 1 to 8 µM
Cc1noc(C)c1-c1cnc2c(c1)c(-c1ccncc1)cn2C(c1ccccn1)C1CCCC1 (stereo not shown) [P-0019, 4-(1-(cyclopentyl(pyridin-2-yl)methyl)-3-(pyridin-4-yl)-1H-pyrrolo[2,3-b]pyridin-5-yl)-3,5-dimethylisoxazole] | 1 to 8 µM
Cc1noc(C)c1-c1cnc2c(c1)c(-c1ccc(C(=O)O)cc1OC1CC1)cn2[C@@H](C)c1ccccn1 [P-0170, (S)-3-cyclopropoxy-4-(5-(3,5-dimethylisoxazol-4-yl)-1-(1-(pyridin-2-yl)ethyl)-1H-pyrrolo[2,3-b]pyridin-3-yl)benzoic acid] | 8 to 1000 µM
Cc1noc(C)c1-c1cnc2c(-c3ccc(C(=O)O)cc3C#CC3CC3)cn([C@@H](C)c3ccccn3)c2c1 [P-0171, (S)-3-(cyclopropylethynyl)-4-(6-(3,5-dimethylisoxazol-4-yl)-1-(1-(pyridin-2-yl)ethyl)-1H-pyrrolo[3,2-b]pyridin-3-yl)benzoic acid] | 0.0001 to 1 µM
COc1ccc(C(=O)O)cc1-c1cn(C(C)(c2ccccn2)c2ccccn2)c2cc(-c3c(C)noc3C)cnc12 [P-0172, 3-(1-(1,1-di(pyridin-2-yl)ethyl)-6-(3,5-dimethylisoxazol-4-yl)-1H-pyrrolo[3,2-b]pyridin-3-yl)-4-methoxybenzoic acid] | 1 to 8 µM
CCOc1cc(C(=O)O)cc(OCC)c1-n1cc(-c2cccnc2)c2ncc(-c3c(C)noc3C)cc21 [P-0173, 4-(6-(3,5-dimethylisoxazol-4-yl)-3-(pyridin-3-yl)-1H-pyrrolo[3,2-b]pyridin-1-yl)-3,5-diethoxybenzoic acid] | 1 to 8 µM
CCOc1cc(C(=O)O)cc(OC(C)C)c1-c1cn([C@@H](C)c2ccccn2)c2ncc(-c3c(C)noc3C)cc12 [P-0174, (S)-4-(5-(3,5-dimethylisoxazol-4-yl)-1-(1-(pyridin-2-yl)ethyl)-1H-pyrrolo[2,3-b]pyridin-3-yl)-3-ethoxy-5-isopropoxybenzoic acid] | 8 to 1000 µM
Cc1noc(C)c1-c1cnc2c(c1)c(-c1ccc(C(=O)O)cc1OC(F)(F)F)cn2-c1cccnc1 [P-0175, 4-(5-(3,5-dimethylisoxazol-4-yl)-1-(pyridin-3-yl)-1H-pyrrolo[2,3-b]pyridin-3-yl)-3-(trifluoromethoxy)benzoic acid] | 1 to 8 µM
COc1ccncc1-n1cc(-c2ccc(C(=O)O)cc2OC(F)(F)F)c2cc(-c3c(C)noc3C)cnc21 [P-0176, 4-(5-(3,5-dimethylisoxazol-4-yl)-1-(4-methoxypyridin-3-yl)-1H-pyrrolo[2,3-b]pyridin-3-yl)-3-(trifluoromethoxy)benzoic acid] | 1 to 8 µM
Cc1noc(C)c1-c1cnc2c(c1)c(-c1ccc(C(=O)O)cc1OC(F)(F)F)cn2-c1cnccc1Cl [P-0177, 4-(1-(4-chloropyridin-3-yl)-5-(3,5-dimethylisoxazol-4-yl)-1H-pyrrolo[2,3-b]pyridin-3-yl)-3-(trifluoromethoxy)benzoic acid] | 8 to 1000 µM
Cc1noc(C)c1-c1cnc2c(c1)c(-c1ccc(C(=O)O)cc1C#CC1CC1)cn2[C@@H](C)c1ccccn1 [P-0178, (S)-3-(cyclopropylethynyl)-4-(5-(3,5-dimethylisoxazol-4-yl)-1-(1-(pyridin-2-yl)ethyl)-1H-pyrrolo[2,3-b]pyridin-3-yl)benzoic acid] | 8 to 1000 µM

Compound | IC50
Cc1noc(C)c1-c1cnc2c(c1)c(-c1ccc(C(=O)O)cc1OC1CCC1)cn2[C@@H](C)c1ccccn1 [P-0179, (S)-3-cyclobutoxy-4-(5-(3,5-dimethylisoxazol-4-yl)-1-(1-(pyridin-2-yl)ethyl)-1H-pyrrolo[2,3-b]pyridin-3-yl)benzoic acid] | 8 to 1000 µM
Cc1noc(C)c1-c1cnc2c(c1)c(-c1ccc(C(=O)O)cc1OC(F)(F)F)cn2-c1ncccc1C(F)(F)F [P-0180, 4-(5-(3,5-dimethylisoxazol-4-yl)-1-(3-(trifluoromethyl)pyridin-2-yl)-1H-pyrrolo[2,3-b]pyridin-3-yl)-3-(trifluoromethoxy)benzoic acid] | 8 to 1000 µM
Cc1noc(C)c1-c1cnc2c(c1)c(-c1ccc(C(=O)O)cc1C1CC1)cn2[C@@H](C)c1ccccn1 [P-0181, (S)-3-cyclopropyl-4-(5-(3,5-dimethylisoxazol-4-yl)-1-(1-(pyridin-2-yl)ethyl)-1H-pyrrolo[2,3-b]pyridin-3-yl)benzoic acid] | 8 to 1000 µM
Cc1noc(C)c1-c1cnc2c(c1)c(-c1ccc(C(=O)O)cc1OC(F)(F)F)cn2-c1ncccc1F [P-0182, 4-(5-(3,5-dimethylisoxazol-4-yl)-1-(3-fluoropyridin-2-yl)-1H-pyrrolo[2,3-b]pyridin-3-yl)-3-(trifluoromethoxy)benzoic acid] | 1 to 8 µM
Cc1noc(C)c1-c1cnc2c(c1)c(-c1ccc(C(=O)O)cc1OC(F)(F)F)cn2-c1ncccc1Cl [P-0183, 4-(1-(3-chloropyridin-2-yl)-5-(3,5-dimethylisoxazol-4-yl)-1H-pyrrolo[2,3-b]pyridin-3-yl)-3-(trifluoromethoxy)benzoic acid] | 8 to 1000 µM
CCOc1cc(C(=O)O)cc(OCC)c1-n1cc(-c2ccc(F)cc2)c2ncc(-c3c(C)noc3C)cc21 [P-0184, 4-(6-(3,5-dimethylisoxazol-4-yl)-3-(4-fluorophenyl)-1H-pyrrolo[3,2-b]pyridin-1-yl)-3,5-diethoxybenzoic acid] | 1 to 8 µM
CCOc1cc(C(=O)O)cc(OCC)c1-n1cc(-c2cccc(Cl)c2)c2ncc(-c3c(C)noc3C)cc21 [P-0185, 4-(3-(3-chlorophenyl)-6-(3,5-dimethylisoxazol-4-yl)-1H-pyrrolo[3,2-b]pyridin-1-yl)-3,5-diethoxybenzoic acid] | 1 to 8 µM
CCOc1cc(C(=O)O)cc(OCC)c1-n1cc(-c2ccc(F)cc2F)c2ncc(-c3c(C)noc3C)cc21 [P-0186, 4-(3-(2,4-difluorophenyl)-6-(3,5-dimethylisoxazol-4-yl)-1H-pyrrolo[3,2-b]pyridin-1-yl)-3,5-diethoxybenzoic acid] | 8 to 1000 µM
CCOc1cc(C(=O)O)cc(OCC)c1-n1cc(Cc2ccccn2)c2ncc(-c3c(C)noc3C)cc21 [P-0187, 4-(6-(3,5-dimethylisoxazol-4-yl)-3-(pyridin-2-ylmethyl)-1H-pyrrolo[3,2-b]pyridin-1-yl)-3,5-diethoxybenzoic acid] | 8 to 1000 µM
Cc1noc(C)c1-c1cnc2c(c1)c(-c1ccc(C(=O)O)cc1OC(F)(F)F)cn2-c1ccccc1 [P-0188, 4-(5-(3,5-dimethylisoxazol-4-yl)-1-phenyl-1H-pyrrolo[2,3-b]pyridin-3-yl)-3-(trifluoromethoxy)benzoic acid] | 1 to 8 µM
Cc1ccncc1-n1cc(-c2ccc(C(=O)O)cc2OC(F)(F)F)c2cc(-c3c(C)noc3C)cnc21 [P-0189, 4-(5-(3,5-dimethylisoxazol-4-yl)-1-(4-methylpyridin-3-yl)-1H-pyrrolo[2,3-b]pyridin-3-yl)-3-(trifluoromethoxy)benzoic acid] | 8 to 1000 µM
CCOc1cc(C(=O)O)cc(OCC)c1-n1cc(CC2CCC2)c2ncc(-c3c(C)nnn3C)cc21 [P-0190, 4-(3-(cyclobutylmethyl)-6-(1,4-dimethyl-1H-1,2,3-triazol-5-yl)-1H-pyrrolo[3,2-b]pyridin-1-yl)-3,5-diethoxybenzoic acid] | 1 to 8 µM
Cc1noc(C)c1-c1cnc2c(c1)c(-c1ccc(C(=O)O)cc1OC(F)(F)F)cn2CCN1CCOCC1 [P-0191, 4-(5-(3,5-dimethylisoxazol-4-yl)-1-(2-morpholinoethyl)-1H-pyrrolo[2,3-b]pyridin-3-yl)-3-(trifluoromethoxy)benzoic acid] | 8 to 1000 µM
CCOc1cc(C(=O)O)cc(OCC)c1-n1cc(-c2ccc(C3CC3)nc2)c2ncc(-c3c(C)noc3C)cc21 [P-0192, 4-(3-(6-cyclopropylpyridin-3-yl)-6-(3,5-dimethylisoxazol-4-yl)-1H-pyrrolo[3,2-b]pyridin-1-yl)-3,5-diethoxybenzoic acid] | 1 to 8 µM
CCOc1cc(C(=O)O)cc(OCC)c1-n1cc(-c2cncc(Cl)c2)c2ncc(-c3c(C)noc3C)cc21 [P-0193, 4-(3-(5-chloropyridin-3-yl)-6-(3,5-dimethylisoxazol-4-yl)-1H-pyrrolo[3,2-b]pyridin-1-yl)-3,5-diethoxybenzoic acid] | 1 to 8 µM
